The text below walks through data of ChEMBL document CHEMBL1201862, “PubChem BioAssay data set” (2004).

Common to all, as to assay: NCI anticancer screen, dose series, 48 h
Test [1] concerns UACC-62.
For test [2], the system named is HCT-15.
Test [3] deals with RXF 393.
The subject of test [4] is A549.
Test [5] relates to NCI-H23.
Test [6] deals with HOP-62.
The subject of test [7] is SK-MEL-5.
Test [8] deals with CCRF-CEM.
The subject of test [9] is SK-OV-3.
Test [10] relates to SNB-19.
In test [11] the test system is NCI-H460.
The subject of test [12] is OVCAR-4.
Test [13] relates to UACC-257.
The test system of test [14] is HL-60.
Test [15] has as its system SW-620.
Test [16] has as its system SK-MEL-28.
In test [17] the test system is HOP-92.
Test [18] deals with HCC 2998.
Test [19] relates to TK-10.
In test [20] the test system is IGROV-1.

Each structure is given as a SMILES string.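 Five concentrations, 48 hours, 96-well plates. GI50 is the concentration that inhibits growth by half.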 The source made the active and inactive calls. Rule as the data show it: active = GI50 up to about 1.1 µM and inactive = higher.

Take `COc1cccc(/C=C/C(=O)N2CC(CCl)c3c2cc(N)c2ccccc32)c1` (stereo unspecified): the GI50 was 0.00298 µM (active) in test [1]; 0.034 µM in [2]; 0.00132 µM (active) in test [3]; 0.00153 µM (active) in [4]; 0.00065 µM (active) in test [5]; < 0.01 µM (active) in [6]. Besides, the GI50 in test [7] was < 0.01 µM (active); in test [8], < 0.01 µM (active); in [9] it was 0.00371 µM (active); in [10], 0.0059 µM (active); in [11] it was 0.000115 µM (active); in test [12], 0.00344 µM (active). The GI50 in test [13] is 0.0193 µM (active); in test [14] it was < 0.01 µM (active); in [15], 0.00194 µM (active); in test [16], 0.0114 µM (active); in test [17], 0.0993 µM (active); in [18], 0.00242 µM (active). Besides, the GI50 in [19] is 0.00314 µM (active).

Take `Nc1nnc(CCC(=O)Nc2cc(Cl)ccc2Cl)n1N`: the GI50 in test [1] is > 100 µM (inactive); in [2], above 100 µM; in [3], > 100 µM (inactive); in test [4] it was > 100 µM (inactive); in [5], > 100 µM (inactive); in test [6], > 100 µM (inactive). For the same molecule, the GI50 in [20], in test [7], in [8], in test [9], in test [10] and in test [11] was > 100 µM (inactive) in each case. Moreover, the GI50 in test [12], in test [13], in test [14], in [15], in [16] and in test [17] was > 100 µM (inactive) throughout. In addition, the GI50 in test [18] and in test [19] was > 100 µM (inactive) in each case.

For the molecule `CC(C)(C)C(=O)OCC1OC(N=[N+]=[N-])C(OC(=O)C(C)(C)C)C(OC(=O)C(C)(C)C)C1OC(=O)C(C)(C)C` (stereo unspecified), the GI50 is > 100 µM (inactive) in test [1]; above 100 µM in test [2]; > 100 µM (inactive) in test [3]; > 100 µM (inactive) in test [4]; > 100 µM (inactive) in [5]; > 100 µM (inactive) in [6]. In addition, the GI50 in [20], in [7], in test [8], in test [9], in [10] and in test [11] was > 100 µM (inactive) each time. Also, the GI50 in test [12] is > 100 µM (inactive); in test [13] it was 82.2 µM (inactive); in test [14], 58.6 µM (inactive); in test [15] it was > 100 µM (inactive); in [16], > 100 µM (inactive); in test [17] it was > 100 µM (inactive). The GI50 in test [18] and in [19] was > 100 µM (inactive) in each case.

As to `COC[C@@H](Cc1ccc(OC)c(OC)c1)[C@@H](COC)Cc1ccc(OC)c(OC)c1`, the GI50 is > 100 µM (inactive) in test [1]; above 100 µM in test [2]; > 100 µM (inactive) in [3]; > 100 µM (inactive) in test [4]; > 100 µM (inactive) in test [5]; > 100 µM (inactive) in [20]. For the same molecule, the GI50 is 51.9 µM (inactive) in [7]; 56.5 µM (inactive) in test [8]; > 100 µM (inactive) in [9]; > 100 µM (inactive) in [10]; > 100 µM (inactive) in test [11]; > 100 µM (inactive) in test [13]. Also, the GI50 in test [14] was > 100 µM (inactive); in [15] it was > 100 µM (inactive); in test [16], > 100 µM (inactive); in test [17] it was 57.9 µM (inactive); in [18], > 100 µM (inactive); in test [19] it was > 100 µM (inactive).

Turning to `Cc1cc2oc3c(ccc(=O)n3C)c(=O)c2c(C)c1Cl`, the GI50 in test [1] was 40.1 µM (inactive); in test [2], 77.6 µM; in test [3], 31.2 µM (inactive); in test [4], 45 µM (inactive); in test [5], 44.6 µM (inactive); in test [6], 49.7 µM (inactive). Also, the GI50 was 32.1 µM (inactive) in test [20]; 29 µM (inactive) in [7]; 38.1 µM (inactive) in test [8]; 75.5 µM (inactive) in test [9]; 71.1 µM (inactive) in test [10]; 61 µM (inactive) in [11]. The GI50 in test [12] is > 100 µM (inactive); in test [14], 37.6 µM (inactive); in test [15], 82.6 µM (inactive); in test [16] it was 26.5 µM (inactive); in [17], 50.1 µM (inactive); in [18], > 100 µM (inactive). In addition, the GI50 in test [19] is > 100 µM (inactive).

With `O=C(Nc1cccc(C(=O)NCCCO)c1)/C(=C/c1ccccc1)NC(=O)c1ccccc1`, the GI50 was > 100 µM (inactive) in test [1]; above 100 µM in test [2]; > 100 µM (inactive) in test [3]; > 100 µM (inactive) in test [4]; > 100 µM (inactive) in test [5]; > 100 µM (inactive) in [6]. Besides, the GI50 in [20], in [7], in test [8], in [9], in test [10] and in test [11] was > 100 µM (inactive) in each case. For the same molecule, the GI50 in test [12], in test [13], in test [14], in [15], in test [16] and in test [17] was > 100 µM (inactive) in each case. The GI50 in [18] and in test [19] was > 100 µM (inactive) throughout.

Turning to `CN(NC(=O)c1cccs1)C1=NCCCN1`, the GI50 in test [1] was > 100 µM (inactive); in [2] it was above 100 µM; in test [3], > 100 µM (inactive); in test [4], > 100 µM (inactive); in test [5], > 100 µM (inactive); in [6], > 100 µM (inactive). The GI50 in [20], in test [7], in test [8], in [9], in [10] and in test [11] was > 100 µM (inactive) in each case. Further, the GI50 in [12], in test [13], in test [14], in [15], in test [16] and in test [17] was > 100 µM (inactive) throughout. In addition, the GI50 in test [18] and in test [19] was > 100 µM (inactive) throughout.
